The record followed here is US11154548B2, “Monosubstituted or polysubstituted amphiphilic hypocrellin derivative, and preparation method and application thereof” (Technical Institute of Physics and Chemistry of the Chinese …, priority 2015, dated 2021).

Entries after “also recorded” stand apart in the source; their conditions may differ.

Holding throughout (format): cell-based
In data set [1] the test system is Hela cells. Kind of data set: Dark toxicity experiment of polysubstituted derivatives, MTT assay. The settings on record: in dark; for cytotoxicity (dark toxicity): Hela cells, FIG. 16a / FIG. 18a. The method, then: Dark toxicity experiment: Hela cells at a certain concentration were inoculated into a 96-well plate, and cultured for 12-24 h. […] […] The survival rate of cells in each group was detected by MTT assay.
Dark toxicity experiment: Hela cells at a certain concentration were inoculated into a 96-well plate, and cultured for 12-24 h. […] […] The survival rate of cells in each group was detected by MTT assay. […] After laser irradiation with a power density of 20 mW/cm^2 at a wavelength of 808 nm for 20 min, the Hela cells were further cultured and incubated in an incubator with a 5% CO2 environment at 37° C. for another 24 h. The survival rate of cells in each group was detected by MTT assay.

The test system of data set [2] is Hela cells. The data set is described as follows: Phototoxicity experiment, 671 nm laser, MTT assay. As to conditions: 200 nM, 50 mW/cm^2, 20 min, FIG. 16b. The method, then: Phototoxicity experiment: Hela cells were incubated together with different concentrations of the compound I-1, the HB and the Ce6 respectively, further incubated in an incubator with a 5% CO2 environment at 37° C. for another 1 hour. After laser irradiation with a power density of 50 mW/cm^2 at a wavelength of 671 nm for 20 min, the Hela cells were further cultured and incubated in an incubator with a 5% CO2 environment at 37° C. for another 24 h. The survival rate of cells in each group was detected by MTT assay.

The subject of data set [3] is Hela cells. Kind of data set: Cell phototoxicity experiment, 635 nm laser, MTT assay. The settings on record: for Hela cells killed: 160 nM, exposed to red light (635 nm, 20 mW/cm^2, 1000 S), FIG. 10b. The procedure: (§1) Cultured Hela cells were digested and percussed with 0.25% trypsin, made into a single cell suspension, adjusted to a cell count of about 2×10^4/mL, inoculated into a 96-well culture plate with 200 uL/well, and cultured in an incubator with a 5% CO2 environment at 37° C. After cells were adherent, the supernatant culture solution was discarded, different concentrations of photosensitizers (hematoporphyrin derivative HpD, HB, and hypocrellin derivative HB-1) were added strictly in dark according to the experiment design, and further incubated in an incubator with a 5% CO2 environment at 37° C. for another 1 h. Then the 96-well culture plate was perpendicularly irradiated with uniform semiconductor laser beam at a wavelength of 635 nm with the power density adjusted to 20 mW/cm^2 for 1000 S. At the same time, a blank group was arranged for each 96-well culture plate, and 6 wells were arranged for each condition. After irradiation, the culture plate was further incubated in an incubator with a 5% CO2 environment at 37° C. for another 24 h, and then the cell survival rate was detected. The survival rate of cells was detected by MTT assay. 20 uL of MTT (prepared with PBS, concentration: 5 mg/mL) was added to each well, and further incubated in an incubator with a 5% CO2 environment at 37° C. for another 4 h. Then the incubation was terminated. The supernatant was carefully pipetted from the wells and discarded, and then 150 uL of dimethyl sulfoxide (DMSO) was added to each well. The violet crystal was fully dissolved by vibration with a microvibrator for 10 min. The optical density value (OD value) of each well was detected by an ELIASA at 570 nm wavelength to calculate the cell survival rate according to the following formula: cell survival rate=OD value of the experimental group/OD value of the blank group×100%.

Data set [4] relates to Hela cells. Kind of data set: Dark cytotoxicity experiment, MTT assay. The settings on record: in dark. The method, then: as §1, with “and further incubated in an incubator with a 5% CO2 environment at 37° C. for another 1 h. Then the 96-well culture plate was perpendicularly irradiated with uniform semiconductor laser beam at a wavelength of 635 nm with the power density adjusted to 20 mW/cm^2 for 1000 S. At the same time, a blank group was arranged for each 96-well culture plate, and 6 wells were arranged for each condition. After irradiation, the culture plate was further incubated in an incubator with a 5% CO2 environment at 37° C. for another 24 h, and then the cell survival rate was detected.” left out

Data set [5] concerns Hela cells. Kind of data set: Phototoxicity experiment, 808 nm laser, MTT assay. As to conditions: 300 nM, 20 mW/cm^2, 20 min, FIG. 18b.

As to `CCCCNc1c(O)c2c3c(c(OC)c4c5c6c(c(O)c(OC)c7c6c(c1C=C(C)C7C(C)=O)c42)C(=O)C=C5OC)SCCN=3` (stereo not drawn) [I-1], the “death of Hela cells after incubation with the photosensitizer” value in data set [1] (10 uM, half an hour) was “significant death of the Hela cells are not seen”. In addition, the “cytotoxicity (dark toxicity)” value in data set [1] is “very low cytotoxicity; also recorded: low cytotoxicity”. Moreover, the Hela cells killed entry in data set [2] is reported as “more than 90%”.

As to `COC1=CC(=O)c2c(O)c(OC)c3c4c2c1c1c(OC)c2c(c5c6c(c(c4c15)C=C(C)C3C(C)=O)NCCN6)=NC(C(=O)O)CS2` (stereo not drawn) [II-2], the “cytotoxicity (dark toxicity)” value in data set [1] is “very low cytotoxicity”.

As to hypocrellin B [HB], in data set [3], the Hela cells killed entry is on record as “about 20%”. Further, in data set [3] (Hela cells, compared with HB and HpD, FIG. 10-14), the “phototoxicity / photodynamic effect, in words” value is given as “much poorer ability to photodynamically kill tumor cells”.

As for `COc1c(O)c2c(=O)cc(OC)c3c4c(OC)cc(=O)c5c(O)c(NCCOCCO)c6c(c(c1C(/C(C)=N/CCOCCO)C(C)=C6)c23)c54` (stereo not drawn) [HB-1], the “death of Hela cells after incubation with the photosensitizer” value in data set [4] (10 uM, half an hour) is “significant death of the Hela cells are not seen”. For the same compound, the “cytotoxicity (dark toxicity)” value in data set [4] (Hela cells, FIG. 10a / FIG. 11a) was “low cytotoxicity”. In data set [3], the Hela cells killed entry was “more than 90%”.

With `C=Cc1c(C)c2cc3nc(c(CC(=O)O)c4[nH]c(cc5nc(cc1[nH]2)C(C)=C5CC)c(C)c4C(=O)O)[C@@H](CCC(=O)O)[C@@H]3C` [Ce6, dihydroporphin Ce6, reference compound], the Hela cells killed entry is listed as “about 30%” in data set [2] and “about 20%” in data set [5].

Consider hematoporphyrin derivative [HpD], for which the Hela cells killed result in data set [3] was “about 20%”.
